Laboratory results from patent US8530652B2, “Pyrrolopyrazoles, potent kinase inhibitors” (Agouron Pharmaceuticals, Inc., priority 2005, dated 2013).
Read-outs that look alike come from different tables or passages of the source.

How the values were obtained:
[1] = target: PAK4 kinase activity in whole cells (TR-293-KDG, modified HEK 293 overexpressing GEF-H1b and PAK4 KD) (Homo sapiens (Human), UniProt O96013); assay: PAK4 cellular assay: sandwich ELISA of PAK4-dependent phosphorylation of GEF-H1b in TR-293-KDG cells; format: cell-based; conditions: doxycycline-induced, 3-hour exposure, phospho-GEF-H1b ELISA
From the text: A sandwich ELISA method was used to measure the PAK4 kinase activity in whole cells. The level of PAK4-dependent phosphorylation of GEF-H1b can be determined by monitoring the binding of a phosphospecific antibody to GEF-H1b. A modified HEK 293 cell line is used in the bioassay and it has been engineered to overexpress both GEF-H1b and the kinase domain (KD) of PAK4. The KD of PAK4 is inducible in this cell line by tetracycline (Trex system, Invitrogen). The name of this cell line has been designated TR-293-KDG. To establish a phosphorylation event on GEF-H1, cells are induced with doxycycline to express the PAK4 KD. […] Candidate substance effect is measured as the ability to block this phosphorylation event.
ELISA plate was prepared by pre-coating the plates with a capture antibody (α-HA-tag mouse monoclonal antibody), blocked with BSA, and washed in 0.1% tween 20 in tris-buffered saline (TBST). Tissue culture plates (precoated with poly-D-lysine) were seeded with TR-293-KDG cells. The TR-293-KDG Cells were induced to express the PAK4 KD with doxycycline overnight and subsequently & concomitantly treated with candidate substances or diluent for an additional 3-hour, continuous exposure. Cells were then lysed with a modified RIPA buffer supplemented with protease inhibitors. The fresh whole cell lysates were then added to the ELISA plate for 2-hours. Between all subsequent steps plates were washed 4 times with TBST. Detection antibody (recognizing the phospho-specific eptitope on GEF-H1b) was added for 1 hour, followed by addition of an enzyme linked goat α-rabbit secondary antibody for 45 minutes. […] EC50 values were calculated by sigmoid curve fitting using a four-parameter analysis.

[2] = target: PAK4 kinase domain (PAK4 KD) (Homo sapiens (Human), UniProt O96013); assay: PAK4 kinase domain enzymatic assay (coupled PK/LDH, NADH absorbance at 340 nm); format: biochemical
From the text: Cloning, expression, and purification of recombinant PAK4 Kinase domain (PAK4 KD): The cDNA coding for PAK4 was amplified from the EST clone (#12) (purchased from Research Genetics) by using PCR. […] The PCR amplified product was cloned into Topo vector (Invitrogen Inc.), and verified by DNA sequencing. PAK4 KD was then subcloned into expression plasmid pET28a(+), pET24a(+), or pGST4.5. The recombinant plasmids containing PAK4 KD was transformed into BL21(DE3) cells for recombinant protein expression. […] The cells were then harvested and lyzed for protein purification. Ni-NTA column (pET28a(+), pET24a(+)) and glutathione column (pGST4.5) were used for the purification.
PAK4 kinase domain enzymatic assay conditions: the enzymatic activity of PAK4 KD was measured by its ability to catalyze the transfer of a phosphate residue from a nucleoside triphosphate to an amino acid side chain of a commercially available peptide (amino acid sequence […]). The conversion of ATP to ADP accompanies the catalytic reaction. The PAK4 KD catalyzed production of ADP from ATP was coupled to the oxidation of NADH through the activities of pyruvate kinase (PK) and lactate dehydrogenase (LDH). The conversion of NADH to NAD^+ is monitored by the decrease in absorbance at 340 nm (e340=6.22 cm^−1mM^−1) using a Molecular Devices SPECTRAMAX 190 in conjunction with the Biomec FX. Typical reaction solutions contain 2 mM phosphoenolpyruvate, 0.35 mM NADH, 10 mM MgCl2, 1 mM DTT, 0.4 mM peptide ([…]) 0.04 mM ATP, 1 units/mL PK, 1 units/mL LDH, 0.01% Tween 20 in 50 mM HEPES, pH 7.5. […] The PAK KD Ki of each compound of the invention (the inhibitor) was calculated based on multiple of Percent Inhibition numbers of the inhibitor at different inhibitor concentrations. The peptide (amino sequence […]) was purchased from American Peptide Company. NADH, MgCl2, HEPES, DTT, ATP and PK/LDH were purchased from Sigma. Tween 20 was purchased from Calbiochem.

[3] = PAK4 kinase domain, 25 nM PAK4 KD, 0.04 mM ATP, pH 7.5

PAK4 kinase domain (PAK4 KD), sequence (O96013 321-572): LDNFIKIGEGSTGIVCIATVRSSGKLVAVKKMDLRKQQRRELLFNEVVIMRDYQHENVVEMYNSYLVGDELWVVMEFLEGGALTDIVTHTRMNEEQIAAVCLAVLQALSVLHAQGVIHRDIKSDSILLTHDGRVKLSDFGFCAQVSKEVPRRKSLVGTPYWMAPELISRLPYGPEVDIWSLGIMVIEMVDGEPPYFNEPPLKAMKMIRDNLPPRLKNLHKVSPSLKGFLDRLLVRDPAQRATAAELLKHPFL
PAK4 kinase activity in whole cells (TR-293-KDG, modified HEK 293 overexpressing GEF-H1b and PAK4 KD), sequence (O96013 321-572): as above

Row | EC50 [1] [nM] | Ki [2, 3] [nM] | Ki [2] [nM] | SMILES
1 | 340 | 16 |  | CC1(C)c2[nH]nc(Nc3ncnc4sccc34)c2CN1C(=O)N[C@@H]1C[C@H]1c1ccccc1 [Example 50, 6,6-dimethyl-N-[(1R,2S)-2-phenylcyclopropyl]-3-(thieno[2,3-d]pyrimidin-4-ylamino)-4,6-dihydropyrrolo[3,4-c]pyrazole-5(1H)-carboxamide]
2 | 1200 |  | 90 | COc1nc(Nc2n[nH]c3c2CN(C(=O)NC2CC2c2ccccc2)C3(C)C)nc(N2CCC[C@H]2C#N)n1 (stereo in doubt) [Example 20, 3-({4-[(2S)-2-cyanopyrrolidin-1-yl]-6-methoxy-1,3,5-triazin-2-yl}amino)-6,6-dimethyl-N-[trans-2-phenylcyclopropyl]-4,6-dihydropyrrolo[3,4-c]pyrazole-5(1H)-carboxamide]
3 | > 4000 | 270 |  | CC1(C)c2[nH]nc(Nc3nc(Cl)nc(Cl)n3)c2CN1C(=O)N[C@@H]1C[C@H]1c1ccccc1 (relative stereo) [Example 9, 3-[(4,6-dichloro-1,3,5-triazin-2-yl)amino]-6,6-dimethyl-N-[trans-2-phenylcyclopropyl]-4,6-dihydropyrrolo[3,4-c] pyrazole-5(1H)-carboxamide]
4 | 262 | 260 |  | Cc1cc2c(Nc3n[nH]c4c3CN(C(=O)N[C@@H]3C[C@H]3c3ccccc3)C4(C)C)ncnc2s1 (relative stereo) [Example 35, 6,6-dimethyl-3-[(6-methylthieno[2,3-d]pyrimidin-4-yl)amino]-N-[trans-2-phenylcyclopropyl]-4,6-dihydropyrrolo[3,4-c]pyrazole-5(1H)-carboxamide]
5 | 87 | 220 |  | CN(C)C[C@@H](NC(=O)N1Cc2c(Nc3ncnc4ccsc34)n[nH]c2C1(C)C)c1ccccc1 [Example 5, N-[(1S)-2-(dimethylamino)-1-phenylethyl]-6,6-dimethyl-3-(thieno[3,2-d]pyrimidin-4-ylamino)-4,6-dihydropyrrolo[3,4-c]pyrazole-5(1H)-carboxamide]
6 | 0.94 | 2.8 |  | CN(C)C[C@@H](NC(=O)N1Cc2c(Nc3nc(Cl)nc4ccsc34)n[nH]c2C1(C)C)c1ccccc1 [Example 6, 3-[(2-chlorothieno[3,2-d]pyrimidin-4-yl)amino]-N-[(1S)-2-(dimethylamino)-1-phenylethyl]-6,6-dimethyl-4,6-dihydropyrrolo[3,4-c]pyrazole-5(1H)-carboxamide]
7 | 32 | 25 |  | CC1(C)c2[nH]nc(Nc3nc(C(F)(F)F)nc4ccsc34)c2CN1C(=O)N[C@@H]1C[C@H]1c1ccccc1 (relative stereo) [Example 45, 6,6-dimethyl-N-[trans-2-phenylcyclopropyl]-3-{[2-(trifluoromethyl)thieno[3,2-d]pyrimidin-4-yl]amino}-4,6-dihydropyrrolo[3,4-c]pyrazole-5(1H)-carboxamide]
8 | 19 | 22 |  | CN(C)C[C@@H](NC(=O)N1Cc2c(Nc3ncnc4sccc34)n[nH]c2C1(C)C)c1ccccc1 [Example 61, N-[(1S)-2-(dimethylamino)-1-phenylethyl]-6,6-dimethyl-3-(thieno[2,3-d]pyrimidin-4-ylamino)-4,6-dihydropyrrolo[3,4-c]pyrazole-5(1H)-carboxamide]
9 | 20 | 120 |  | CN(C)C[C@@H](OC(=O)N1Cc2c(Nc3ncncc3F)n[nH]c2C1(C)C)c1ccccc1 [Example 80, (1S)-2-(dimethylamino)-1-phenylethyl 3-[(5-fluoropyrimidin-4-yl)amino]-6,6-dimethyl-4,6-dihydropyrrolo[3,4-c]pyrazole-5(1H)-carboxylate]
10 | 805 | 270 |  | CCOc1ncc(F)c(Nc2n[nH]c3c2CN(C(=O)N[C@@H]2C[C@H]2c2ccccc2)C3(C)C)n1 (relative stereo) [Example 37, 3-[(2-ethoxy-5-fluoropyrimidin-4-yl)amino]-6,6-dimethyl-N-[trans-2-phenylcyclopropyl]-4,6-dihydropyrrolo[3,4-c]pyrazole-5(1H)-carboxamide]
11 | 20 | 280 |  | CN(C)C[C@@H](NC(=O)N1Cc2c(Nc3ncncc3F)n[nH]c2C1(C)C)c1ccccc1 [Example 67, N-[(1S)-2-(dimethylamino)-1-phenylethyl]-3-[(5-fluoropyrimidin-4-yl)amino]-6,6-dimethyl-4,6-dihydropyrrolo[3,4-c]pyrazole-5(1H)-carboxamide]
12 | 1.9 | 8.8 |  | CN(C)C[C@@H](OC(=O)N1Cc2c(Nc3ccnc(C#N)n3)n[nH]c2C1(C)C)c1ccccc1 [Example 70, (1S)-2-(dimethylamino)-1-phenylethyl 3-[(2-cyanopyrimidin-4-yl)amino]-6,6-dimethyl-4,6-dihydropyrrolo [3,4-c]pyrazole-5(1H)-carboxylate]
13 | 778 | 21 |  | Cc1nc(Nc2n[nH]c3c2CN(C(=O)N[C@@H]2C[C@H]2c2ccccc2)C3(C)C)cc(N2CCOCC2)n1 (relative stereo) [Example 34, 6,6-dimethyl-3-[(2-methyl-6-morpholin-4-ylpyrimidin-4-yl)amino]-N-[trans-2-phenylcyclopropyl]-4,6-dihydropyrrolo[3,4-c]pyrazole-5(1H)-carboxamide]
14 | > 2000 | 41 |  | CC1(C)c2[nH]nc(Nc3ncnc4ccsc34)c2CN1C(=O)N[C@H]1C[C@@H]1c1ccccc1 (relative stereo) [Example 1, 6,6-dimethyl-N-[trans-2-phenylcyclopropyl]-3-(thieno[3,2-d]pyrimidin-4-ylamino)-4,6-dihydropyrrolo[3,4-c]pyrazole-5(1H)-carboxamide]
15 | 98 | 18 |  | CC1(C)c2[nH]nc(Nc3nc(C#N)nc4ccccc34)c2CN1C(=O)N[C@@H]1C[C@H]1c1ccccc1 (relative stereo) [Example 40, 3-[(2-cyanoquinazolin-4-yl)amino]-6,6-dimethyl-N-[trans-2-phenylcyclopropyl]-4,6-dihydropyrrolo[3,4-c]pyrazole-5(1H)-carboxamide]
16 | 3 | 1.9 |  | Cc1nc(Nc2n[nH]c3c2CN(C(=O)O[C@H](CN(C)C)c2ccccc2)C3(C)C)c2ccsc2n1 [Example 69, (1S)-2-(dimethylamino)-1-phenylethyl 6,6-dimethyl-3-[(2-methylthieno[2,3-d]pyrimidin-4-yl)amino]-4,6-dihydropyrrolo[3,4-c]pyrazole-5(1H)-carboxylate]
17 | > 4000 | 120 |  | COc1nc(Cl)nc(Nc2n[nH]c3c2CN(C(=O)N[C@@H]2C[C@H]2c2ccccc2)C3(C)C)n1 (relative stereo) [Example 10, 3-[(4-chloro-6-methoxy-1,3,5-triazin-2-yl)amino]-6,6-dimethyl-N-[trans-2-phenylcyclopropyl]-4,6-dihydropyrrolo[3,4-c]pyrazole-5(1H)-carboxamide]

Row | SMILES | EC50 [1] [nM] | Ki [2, 3] [nM] | Ki [2] [nM]
18 | CN(C)C[C@@H](OC(=O)N1Cc2c(Nc3ncnc4ccsc34)n[nH]c2C1(C)C)c1ccccc1 [Example 68, (1S)-2-(dimethylamino)-1-phenylethyl 6,6-dimethyl-3-(thieno[3,2-d]pyrimidin-4-ylamino)-4,6-dihydropyrrolo[3,4-c]pyrazole-5(1H)-carboxylate] | 20 | 6.7 | 
